For 19 compounds, IC50 and EC50 results are on record in patent US20160002204A1 (Board of Regents, The University of Texas System, priority 2014, published 2016).

The target in assay [1] is T1, GLS1 (purified recombinant human GAC) (Homo sapiens, UniProt O94925).
T1 sequence (O94925 55-598 isoform O94925-3 limits assumed): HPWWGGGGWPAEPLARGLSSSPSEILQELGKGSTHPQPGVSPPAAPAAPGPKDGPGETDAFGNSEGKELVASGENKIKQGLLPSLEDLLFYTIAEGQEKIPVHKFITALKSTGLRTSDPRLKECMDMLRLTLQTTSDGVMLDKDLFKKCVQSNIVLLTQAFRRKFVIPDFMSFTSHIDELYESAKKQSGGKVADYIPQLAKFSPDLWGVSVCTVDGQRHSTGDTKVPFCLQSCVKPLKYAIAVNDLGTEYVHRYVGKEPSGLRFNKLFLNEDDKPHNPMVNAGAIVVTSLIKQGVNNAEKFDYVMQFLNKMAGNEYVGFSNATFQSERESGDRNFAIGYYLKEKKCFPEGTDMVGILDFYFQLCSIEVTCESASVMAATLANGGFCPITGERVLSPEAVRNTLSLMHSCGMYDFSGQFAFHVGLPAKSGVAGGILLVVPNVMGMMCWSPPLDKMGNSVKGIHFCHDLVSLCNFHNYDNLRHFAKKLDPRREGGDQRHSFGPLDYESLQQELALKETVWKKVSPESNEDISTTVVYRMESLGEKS
The experiment in a line: GLS1 enzymatic activity assay (dual-coupled, Amplex UltraRed/resorufin). The assay is classed as biochemical. Summed up:
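GAC activity measured by coupling glutamate to glutamate oxidase and HRP, generating resorufin from Amplex UltraRed. Enzyme (2 nM) preincubated with 50 mM potassium phosphate 10 min at room temperature, then inhibitor 10 min; 1 mM glutamine substrate, 1% DMSO. Fluorescence 530/590 nm, kinetic or 20-min endpoint; IC50 from four-parameter logistic fit.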

A further assay deals with A549 cells. The experiment in a line: A549 proliferation (viability) assay, Cell Titer Fluor, 72 hours. The assay is classed as cell-based. The settings on record: Homo sapiens. Summed up: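 A549 cells in RPMI 1640 with 10% dialyzed FBS were seeded at 1000 cells/well, grown 24 h, then exposed to compound (0.5% DMSO final) for 72 h at 37 °C, 5% CO2. Viability was read by Cell Titer Fluor fluorescence; EC50 from four-parameter logistic fit.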

Some results are limits rather than exact numbers.

In the case of `CO[C@H](C(=O)Nc1ccn(CCC(F)Cn2cc(C(=O)NCc3ccc(C)nc3)nn2)c(=O)c1F)c1ccccc1` (stereo partly drawn) [Example 312, 1-(2-fluoro-4-{3-fluoro-4-[(2S)-2-methoxy-2-phenylacetamido]-2-oxo-1,2-dihydropyridin-1-yl}butyl)-N-[(6-methylpyridin-3-yl)methyl]-1H-1,2,3-triazole-4-carboxamide], the IC50 in assay [1] is under 100 nM. This compound also came in with an EC50 in the assay with A549 cells of 100 to 500 nM.
On to `CO[C@@H](C(=O)Nc1ccn(CCC(F)Cn2cc(C(=O)NCc3ccc(C)nc3)nn2)c(=O)c1F)c1ccccc1` (stereo partly drawn) [Example 313, 1-(2-fluoro-4-{3-fluoro-4-[(2R)-2-methoxy-2-phenylacetamido]-2-oxo-1,2-dihydropyridin-1-yl}butyl)-N-[(6-methylpyridin-3-yl)methyl]-1H-1,2,3-triazole-4-carboxamide], for which the IC50 in assay [1] is under 100 nM. Besides, the concentration giving a half-maximal response (EC50) in the assay with A549 cells is 100 to 500 nM.
The matching figures for `CC(C)(C)OC(=O)N1CCC(CC(=O)Nc2ccn(CC(F)CCn3cc(C(=O)NCc4cccc(OC(F)(F)F)c4)nn3)c(=O)c2F)CC1` (centres unmarked) [Example 314, tert-butyl 4-{[(3-fluoro-1-{2-fluoro-4-[4-({[3-(trifluoro-methoxy)phenyl]methyl}carbamoyl)-1H-1,2,3-triazol-1-yl]butyl}-2-oxo-1,2-dihydropyridin-4-yl)carbamoyl]methyl}piperidine-1-carboxylate]: 500 to 5000 nM and 100 to 500 nM.
The corresponding values for `O=C(Nc1ccn(CCC(F)Cn2cc(C(=O)NCc3cccc(OC(F)(F)F)c3)nn2)c(=O)c1F)C(=O)c1ccccc1` (centres unmarked) [Example 315, 1-{2-fluoro-4-[3-fluoro-2-oxo-4-(2-oxo-2-phenylacetamido)-1,2-dihydropyridin-1-yl]butyl}-N-{[3-(trifluoromethoxy)phenyl]methyl}-1H-1,2,3-triazole-4-carboxamide] are under 100 nM and under 100 nM.
The matching figures for `CC(C(=O)Nc1ccn(CCC(F)Cn2cc(C(=O)NCc3cccc(OC(F)(F)F)c3)nn2)c(=O)c1F)c1ccccc1` (centres unmarked) [Example 316, 1-{2-fluoro-4-[3-fluoro-2-oxo-4-(2-phenylpropanamido)-1,2-dihydropyridin-1-yl]butyl}-N-{[3-(trifluoromethoxy)phenyl]methyl}-1H-1,2,3-triazole-4-carboxamide]: under 100 nM and under 100 nM.
Turning to `O=C(Cc1ccccc1)Nc1ccn(CCC(F)Cn2cc(C(=O)NCc3cccc(C(F)(F)F)n3)nn2)c(=O)c1F` (centres unmarked) [Example 317, 1-{2-fluoro-4-[3-fluoro-2-oxo-4-(2-phenylacetamido)-1,2-dihydropyridin-1-yl]butyl}-N-{[6-(trifluoromethyl)pyridin-2-yl]methyl}-1H-1,2,3-triazole-4-carboxamide], in assay [1], the IC50 is under 100 nM. For the same compound, the EC50 in the assay on A549 cells is under 100 nM.
As to `O=C(CC1CCCC1)Nc1ccn(CCC(F)Cn2cc(C(=O)NCc3cccc(C(F)(F)F)n3)nn2)c(=O)c1F` (centres unmarked) [Example 318, 1-{4-[4-(2-cyclopentylacetamido)-3-fluoro-2-oxo-1,2-dihydropyridin-1-yl]-2-fluorobutyl}-N-{[6-(trifluoromethyl)pyridin-2-yl]methyl}-1H-1,2,3-triazole-4-carboxamide], the IC50 in assay [1] was under 100 nM. Further, the EC50 with A549 cells was under 100 nM.
With `CC(C)(C)OC(=O)Nc1ccn(CCC(F)Cn2cc(C(=O)NCc3cc(C(F)(F)F)ccn3)nn2)c(=O)c1F` (centres unmarked) [Example 320, tert-butyl N-(3-fluoro-1-{3-fluoro-4-[4-({[4-(trifluoromethyl)pyridin-2-yl]methyl}carbamoyl)-1H-1,2,3-triazol-1-yl]butyl}-2-oxo-1,2-dihydropyridin-4-yl)carbamate], the IC50 in assay [1] lay in the range of 100 to 500 nM. This compound also gave an EC50 with A549 cells of 100 to 500 nM.
As to `O=C(Cc1ccccc1)Nc1ccn(CCC(F)Cn2cc(C(=O)NCc3cc(C(F)(F)F)ccn3)nn2)c(=O)c1F` (centres unmarked) [Example 323, 1-{2-fluoro-4-[3-fluoro-2-oxo-4-(2-phenylacetamido)-1,2-dihydropyridin-1-yl]butyl}-N-{[4-(trifluoromethyl)pyridin-2-yl]methyl}-1H-1,2,3-triazole-4-carboxamide], the IC50 in assay [1] was under 100 nM. The compound also returned a 50% effective concentration (EC50) in the assay on A549 cells of under 100 nM.
As to `CCOC(=O)N1CCC(CC(=O)Nc2ccn(CCC(F)Cn3cc(C(=O)NCc4cc(C(F)(F)F)ccn4)nn3)c(=O)c2F)CC1` (centres unmarked) [Example 324, ethyl 4-{[(3-fluoro-1-{3-fluoro-4-[4-({[4-(trifluoromethyl)pyridin-2-yl]methyl}carbamoyl)-1H-1,2,3-triazol-1-yl]butyl}-2-oxo-1,2-dihydropyridin-4-yl)carbamoyl]methyl}piperidine-1-carboxylate], the IC50 in assay [1] is under 100 nM. Also, in the assay on A549 cells, the concentration for a half-maximal effect (EC50) is under 100 nM.
Regarding `CC(=O)OC(C(=O)Nc1ccn(CC[C@H](F)Cn2cc(C(=O)NCc3cc(C(F)(F)F)ccn3)nn2)c(=O)c1F)c1ccccc1` (stereo partly drawn) [Example 325, (S)-[(3-fluoro-1-{3-fluoro-4-[4-({[4-(trifluoromethyl)pyridin-2-yl]methyl}carbamoyl)-1H-1,2,3-triazol-1-yl]butyl}-2-oxo-1,2-dihydropyridin-4-yl)carbamoyl](phenyl)methyl acetate], in assay [1], the IC50 is under 100 nM. Also, in the assay with A549 cells, the EC50 is under 100 nM.
As to `O=C(NCc1cc(C(F)(F)F)ccn1)c1cn(CC(F)CCn2ccc(NC(=O)[C@@H](O)c3ccccc3)c(F)c2=O)nn1` (stereo partly drawn) [Example 326, 1-(2-fluoro-4-{3-fluoro-4-[(2S)-2-hydroxy-2-phenylacetamido]-2-oxo-1,2-dihydropyridin-1-yl}butyl)-N-{[4-(trifluoromethyl)pyridin-2-yl]methyl}-1H-1,2,3-triazole-4-carboxamide], the IC50 in assay [1] is under 100 nM. Besides, in the assay with A549 cells, the EC50 was under 100 nM.
For `O=C(NCc1cccc(OC(F)(F)F)c1)c1cn(CC(F)CCn2ccc(NC(=O)C(F)c3ccccc3)c(F)c2=O)nn1` (centres unmarked) [Example 327, 1-{2-fluoro-4-[3-fluoro-4-(2-fluoro-2-phenylacetamido)-2-oxo-1,2-dihydropyridin-1-yl]butyl}-N-{[3-(trifluoromethoxy)phenyl]methyl}-1H-1,2,3-triazole-4-carboxamide], the IC50 in assay [1] is under 100 nM. In the assay on A549 cells, this compound came in with an EC50 of under 100 nM.
Turning to `O=C(Cc1ccccc1F)Nc1ccn(CCC(F)Cn2cc(C(=O)NCc3cccc(OC(F)(F)F)c3)nn2)c(=O)c1F` (centres unmarked) [Example 328, 1-(2-fluoro-4-{3-fluoro-4-[2-(2-fluorophenyl)acetamido]-2-oxo-1,2-dihydropyridin-1-yl}butyl)-N-{[3-(trifluoromethoxy)phenyl]methyl}-1H-1,2,3-triazole-4-carboxamide], the IC50 in assay [1] is under 100 nM. In the assay on A549 cells, this compound registered an EC50 of under 100 nM.
Consider `O=C(CC1CCCC1)Nc1ccn(CCC(F)Cn2cc(C(=O)NCc3cc(C(F)(F)F)ccn3)nn2)c(=O)c1F` (centres unmarked) [Example 329, 1-{4-[4-(2-cyclopentylacetamido)-3-fluoro-2-oxo-1,2-dihydropyridin-1-yl]-2-fluorobutyl}-N-{[4-(trifluoromethyl)pyridin-2-yl]methyl}-1H-1,2,3-triazole-4-carboxamide], for which the 50% inhibitory concentration (IC50) in assay [1] was under 100 nM. The compound also came in with an EC50 in the assay with A549 cells of under 100 nM.
For `CC(C)(C)OC(=O)Nc1ccn(CCC(F)Cn2cc(C(=O)NCc3cncc(C(F)(F)F)c3)nn2)c(=O)c1F` (centres unmarked) [Example 330, tert-butyl N-(3-fluoro-1-{3-fluoro-4-[4-({[5-(trifluoromethyl)pyridin-3-yl]methyl}carbamoyl)-1H-1,2,3-triazol-1-yl]butyl}-2-oxo-1,2-dihydropyridin-4-yl)carbamate], in assay [1], the IC50 was under 100 nM. The same compound displayed an EC50 in the assay with A549 cells of 100 to 500 nM.
The corresponding values for `Nc1ccn(CCC(F)Cn2cc(C(=O)NCc3cncc(C(F)(F)F)c3)nn2)c(=O)c1F` (centres unmarked) [Example 331, 1-[4-(4-amino-3-fluoro-2-oxo-1,2-dihydropyridin-1-yl)-2-fluorobutyl]-N-{[5-(trifluoromethyl)pyridin-3-yl]methyl}-1H-1,2,3-triazole-4-carboxamide] are 500 to 5000 nM and over 5000 nM.
The corresponding values for `O=C(CC1CCC1)Nc1ccn(CCC(F)Cn2cc(C(=O)NCc3cc(C(F)(F)F)ccn3)nn2)c(=O)c1F` (centres unmarked) [Example 332, 1-{4-[4-(2-cyclobutylacetamido)-3-fluoro-2-oxo-1,2-dihydropyridin-1-yl]-2-fluorobutyl}-N-{[4-(trifluoromethyl)pyridin-2-yl]methyl}-1H-1,2,3-triazole-4-carboxamide] are under 100 nM and under 100 nM.
The matching figures for `O=C(Nc1ccn(CCC(F)Cn2cc(C(=O)NCc3cc(C(F)(F)F)ccn3)nn2)c(=O)c1F)C(=O)c1ccccc1` (centres unmarked) [Example 333, 1-{2-fluoro-4-[3-fluoro-2-oxo-4-(2-oxo-2-phenylacetamido)-1,2-dihydropyridin-1-yl]butyl}-N-{[4-(trifluoromethyl)pyridin-2-yl]methyl}-1H-1,2,3-triazole-4-carboxamide]: under 100 nM and under 100 nM.
